The values below come from ChEMBL document CHEMBL1132648, “Butenolide endothelin antagonists with improved aqueous solubility” (J Med Chem, 1999).

For the data set the following is noted: buffer, pH 7.4.
On to `COc1ccc(C(=O)/C(Cc2cc(OC)c(OC)c(OCCCC(=O)O)c2)=C(\C(=O)[O-])c2ccc3c(c2)OCO3)cc1.[Na+]`, for which the Aqueous solubility – broadly, the concentration that dissolves in the medium under given conditions – is more than 250 ng/mL.

`COc1ccc(C(=O)/C(Cc2cc(OC)c(OC)c(OC)c2)=C(\C(=O)[O-])c2ccc3c(c2)OCO3)cc1.[Na+]` [PD-156707 SODIUM]: the Aqueous solubility was more than 125 ng/mL.

Turning to `COc1ccc(C2(O)OC(=O)C(c3ccc4c(c3)OCO4)=C2Cc2cc(OC)c(OC)c(OC)c2)cc1` (stereo not drawn) [PD-156707], the Aqueous solubility was less than 0.01 ng/mL.
